# Test results reported in patent US10774064B2 (Cadent Therapeutics, Inc., priority 2016, dated 2020).
# Target: T1, small-conductance Ca2+-activated K+ channels (SK channels, subtype 2) (Homo sapiens, UniProt Q9H2S1)
# T1 construct: expressed in transfected cells; host or cells: HEK293
# Assay: whole-cell patch-clamp of ionic current through SK2 channels in HEK293 cells (SC100)
# Format: cell-based
# Settings: concentration that increases the basal current by 100%; HEK293 cells expressing SK2 channels
# Method in brief: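 SC100, the concentration doubling basal current (a 100% increase), was taken from SK2 currents recorded by whole-cell patch-clamp in SK2-expressing HEK293 cells.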
row,SC100,SMILES
1,+ (+ means >1 uM),"CCc1cnc(-n2nc(C)cc2C)nc1NC1CCC(F)(F)CC1 [Compound 111, N-(4,4-difluorocyclohexyl)-2-(3,5-dimethyl-1H-pyrazol-1-yl)-5-ethylpyrimidin-4-amine]"
2,+ (+ means >1 uM),"Cc1cc(C)n(-c2nc(NC3CCC(F)(F)CC3)cc([C@@H]3COCC[C@H]3O)n2)n1 [Compound 254, (+)-3-(6-((4,4-difluorocyclohexyl)amino)-2-(3,5-dimethyl-1H-pyrazol-1-yl)pyrimidin-4-yl)tetrahydro-2H-pyran-4-ol]"
3,+ (+ means >1 uM),"CC(C)C1CC(=O)N1Cc1cc(NC2CCC(F)(F)CC2)nc(-n2ccc(CF)n2)n1 (stereo not drawn) [Compound 325, 1-((6-((4,4-difluorocyclohexyl)amino)-2-(3-(fluoromethyl)-1H-pyrazol-1-yl)pyrimidin-4-yl)methyl)-4-isopropylazetidin-2-one]"

# Same assay, conditions: whole-cell patch-clamp, HEK293 cells expressing SK2 channels; concentration that increases the basal current by 100%
row,SMILES,SC100 (μM)
1,"COC(=O)NCCOc1c(NC2CCC(F)(F)CC2)nc(-c2nc(C)cs2)nc1OC [IN11125-052-P1, methyl (2-((4-((4,4-difluorocyclohexyl)amino)-6-methoxy-2-(4-methylthiazol-2-yl)pyrimidin-5-yl)oxy)ethyl)carbamate]",+ (+ means >1 uM)
2,COC(=O)N1CC(Oc2cc(NC3CCC(F)CC3)nc(-c3nc(C)cs3)n2)C1 (stereo not drawn) [NSSy5710],++ (++ means 200 nM-1000 nM)
3,COC(=O)N1CC(Oc2cc(NC3C4CC5CC(C4)CC3C5)nc(-n3ccc(C)n3)n2)C1 (stereo not drawn) [NSSy6091],++ (++ means 200 nM-1000 nM)
4,"COc1cnc(-c2nc(C3CC3)cs2)nc1NC1CCC(F)(F)CC1 [IN11147-096-P1, 2-(4-cyclopropylthiazol-2-yl)-N-(4,4-difluorocyclohexyl)-5-methoxypyrimidin-4-amine]",+++ (+++ means <200 nM)
5,COC[C@H]1CN(c2cc(NC3CCCCC3)nc(-c3nc(C)cs3)n2)CCO1 [NSSy6115],++ (++ means 200 nM-1000 nM)
6,Cc1csc(-c2nc(C(C)O)cc(N(C)C3CCCCC3)n2)n1 (stereo not drawn) [IN10880-084-P1],+ (+ means >1 uM)
7,"COc1cccc2c(NC3CCC(F)(F)CC3)nc(-c3nc(C)cs3)nc12 [IN11030-081-P1, N-(4,4-difluorocyclohexyl)-8-methoxy-2-(4-methylthiazol-2-yl) quinazolin-4-amine]",++ (++ means 200 nM-1000 nM)

# Other lines, results leading:
row,SC100 (μM),SMILES
1,+ (+ means >1 uM),OC(c1cc(NC2CCC(F)(F)CC2)nc(-n2cc(F)cn2)c1)c1ncco1 (stereo not drawn) [NSSy6435]
2,+ (+ means >1 uM),"Oc1ccn(-c2nc(NC3CCC(F)(F)CC3)cc(N3CCOCC3)n2)n1 [NSSy7087, 1-(4-((4,4-difluorocyclohexyl)amino)-6-morpholinopyrimidin-2-yl)-1H-pyrazol-3-ol]"
3,+ (+ means >1 uM),C=Cc1ccn(-c2nc(C)cc(NC3CCC(F)(F)CC3)n2)n1 [IN11250-031-P1]
4,++ (++ means 200 nM-1000 nM),Cc1ccn(-c2cc(N3CCOCC3)cc(NC3CCC(F)(F)CC3)n2)n1 [NSSy6573]
5,+++ (+++ means <200 nM),"Cc1csc(-c2cc(N3CCN(C)C(=O)C3)cc(NC3CCC(F)(F)CC3)n2)n1 [NSSy5674, 4-(2-((4,4-difluorocyclohexyl)amino)-6-(4-methylthiazol-2-yl)pyridin-4-yl)-1-methylpiperazin-2-one]"
6,++ (++ means 200 nM-1000 nM),Cc1ccn(-c2nc(NC3CCC(F)(F)CC3)cc(N3CCNC(=O)C3)n2)n1 [IN11106-091-P1]
7,+ (+ means >1 uM),"CCC(O)c1ccn(-c2nc(C)cc(NC3CCC(F)(F)CC3)n2)n1 (stereo not drawn) [IN11251-011-P2, 1-(1-(4-((4,4-difluorocyclohexyl)amino)-6-methylpyrimidin-2-yl)-1H-pyrazol-3-yl)propan-1-ol]"
8,+ (+ means >1 uM),"Cc1cc(NC2CCC(F)(F)CC2)nc(-n2ccc(O)n2)n1 [NSSy7027, 1-(4-((4,4-difluorocyclohexyl)amino)-6-methylpyrimidin-2-yl)-1H-pyrazol-3-ol]"
